Source: paper PMC5547389, “Structure-activity relationships and molecular docking studies of chromene and chromene based azo chromophores: A novel series of potent antimicrobial and anticancer agents” (EXCLI Journal, 2017)

Experiments:
[1] = tested on: Streptococcus pneumoniae (RCMB 010010); experiment: Well diffusion assay (inhibition zone); format: cell-based; settings: RCMB010010, 5 mg/mL in DMSO, Gm+ve, read-out: Inhibition Zone (IZ) diameter, S.P
Summary of the method: (§1)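 Agar well diffusion with 10 mm wells, nutrient agar for bacteria and malt extract agar for fungi. Plates were incubated 24-48 h at 37 °C for bacteria or 28 °C for fungi. Inhibition zone diameters were measured in mm, in triplicate.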

[2] = tested on: Syncephalastrum racemosum (RCMB 05922); experiment: Well diffusion assay (inhibition zone); format: cell-based; settings: RCMB05922, 5 mg/mL in DMSO, fungi, read-out: Inhibition Zone (IZ) diameter, S.R
Summary of the method: as §1

[3] = tested on: Escherichia coli (RCMB 010052); experiment: Well diffusion assay (inhibition zone); format: cell-based; settings: RCMB010052, 5 mg/mL in DMSO, Gm-ve, read-out: Inhibition Zone (IZ) diameter, E.C
Summary of the method: as §1

[4] = tested on: Aspergillus fumigatus (RCMB 02568); experiment: Well diffusion assay (inhibition zone); format: cell-based; settings: RCMB02568, 5 mg/mL in DMSO, fungi, read-out: Inhibition Zone (IZ) diameter, A.F
Summary of the method: as §1

[5] = tested on: Bacillus subtilis (RCMB 010067); experiment: Well diffusion assay (inhibition zone); format: cell-based; settings: RCMB010067, 5 mg/mL in DMSO, Gm+ve, read-out: Inhibition Zone (IZ) diameter, B.S
Summary of the method: as §1

[6] = tested on: primary mixed neuronal in vitro culture; experiment: Acute toxicity, LDH release; format: cell-based, rat
Protocol: In vitro experiments were carried out at the University of Prince Edward Island and approved by the Animal Care and Biosafety Committees, which adheres to the guidelines of the Canadian Council on Animal Care (protocol #14-041 and 15-028). Mixed neocortical cultures, containing both neurons and glia, were prepared from fetal rats at 17-18 days gestation. Briefly, embryonic tissue was extracted from untimed pregnant Sprague-Dawley rats by caesarean section and transferred to ice-cold Hanks Balanced Salt Solution (Gibco). Cortical brain tissue was carefully isolated by fine dissection using aseptic techniques. Cortices were minced in cold HBSS using a sterile razor blade prior to digestion with 0.0125 % trypsin. Dissociated cells were plated in poly-L-lysine (1 mg/ml, Sigma Aldrich) coated 96 well plates at a seeding density of 50000 cells/well in warm (37 °C) Dulbecco's Modified Eagle Medium (Gibco) containing 10 % iron-supplemented bovine calf serum (Hyclone) and 1 % antibiotic/antimycotic (Gibco). Cultures were allowed to adhere overnight in a humidified 37 °C incubator having 5 % CO2 and atmospheric oxygen. The following day, the media was replaced with warmed Neurobasal A Medium (Gibco) containing 0.5 mM L-glutamine (Gibco) and supplemented with 1 % B27, N2 and antibiotic/antimycotic (Gibco). Half-volume media changes were made every 4 days thereafter with experiments being carried out on 14-16 day old cultures. After 14 days in culture, the medium was replaced with deoxygenated unsupplemented glucose-free Neurobasal A containing either 10 or 100 µM of the novel compounds T3, T4, T5, T8, T9, T11, or T12. Control wells contained glucose-free medium plus vehicle - either 0.1 % ethanol or 0.1 % DMSO. Cultures were transferred to a humidified 37 °C incubator having 5 % CO2, 1.1 % O2 and the balance N2 for a period of 24 hours. Following OGD, an equal volume of normal supplemented Neurobasal A containing identical drug concentrations was added and cultures were transferred to normoxic conditions (5 % CO2 and atmospheric oxygen) for an additional 24 h. Cell viability was assessed by measuring LDH release from damaged cells. Control cultures were prepared in separate plates having supplemented Neurobasal A and being maintained in 5 % CO2 and atmospheric oxygen for the duration of the experiment. Toxicity was assessed in wells treated with 10 µM of each of the test compounds listed above. After 24 h an equal volume of culture media as added to each well to account for handling effects on experimental outcomes. Toxicity was assessed after an additional 24 h in culture by measuring LDH release from treated cells. At the end of each experiment, cell injury was assessed by measuring lactate dehydrogenase (LDH) released from damaged cells into the culture medium (Cytoscan LDH Assay, G Biosciences). LDH measurements represent the average of 7 replicate treatments/dose. The effect of OGD and drug treatments on LDH was expressed as a percent of LDH release compared to OGD and vehicle groups. […]
Lactate dehydrogenase (LDH) release in the medium is an enzymatic indicator that illustrates the loss of membrane integrity, apoptosis, or necrosis of a cell. Using a primary mixed neuronal in vitro culture, the cytotoxic effect of the chromene-based compounds (4a, 4c, 7c, 12c, 12k, 13g, and 13h) was assessed by lactate dehydrogenase (LDH) release from cells pretreated with different concentrations after 24 and 48 h of incubation (Figure 9A-C(Fig. 9)). […]

[7] = tested on: Geotricum candidum (RCMB 05097); experiment: Well diffusion assay (inhibition zone); format: cell-based; settings: 5 mg/mL in DMSO; fungi; read-out: Inhibition Zone (IZ) diameter, G.C
Summary of the method: as §1

SMILES | zone of inhibition at 5000 µg/mL [1] | zone of inhibition at 5000 µg/mL [2] | zone of inhibition at 5000 µg/mL [3] | zone of inhibition at 5000 µg/mL [4] | zone of inhibition at 5000 µg/mL [5] | LDH release more than vehicle ([6]; 10 µM, 24 hrs of incubation) | zone of inhibition at 5000 µg/mL [7] | LDH release ([6]; 10 µM, 24 hrs of incubation) | LDH release ([6]; 100 µM, 24 hrs)
N#CC1=C(N)Oc2c(N)cc3ccccc3c2C1c1ccc(F)cc1 (stereo not shown) [4a, 3,5-diamino-1-(4-fluorophenyl)-1H-benzo[f]chromene-2-carbonitrile] | 16.9 mm | 12.6 mm | 11.9 mm | 12.3 mm | 18.2 mm | 2-3 folds | – | – | –
COc1ccc(N=Nc2cc3c(cc2O)OC(N)=C(C#N)C3c2ccc(F)cc2)cc1 (stereo not shown) [13b, 2-Amino-4-(4-fluoro-phenyl)-7-hydroxy-6-(4-methoxy-phenylazo)-4H-chromene-3-carbonitrile] | 17.5 mm | 15.2 mm | 17.8 mm | 16.3 mm | 19.7 mm | – | 17.3 mm | – | –
N#CC1=C(N)Oc2c(N)cc3ccccc3c2C1c1ccc(Cl)cc1 (stereo not shown) [4b, 3,5-diamino-1-(4-chlorophenyl)-1H-benzo[f]chromene-2-carbonitrile] | 22.6 mm | 17.6 mm | 18.3 mm | 24.3 mm | 33.7 mm | – | 26.9 mm | – | –
Cc1ccc(C2C(C#N)=C(N)Oc3c(N)cc4ccccc4c32)cc1 (stereo not shown) [4c, 3,5-diamino-1-(p-tolyl)-1H-benzo[f]chromene-2-carbonitrile] | 18.2 mm | 16.9 mm | 15.3 mm | 20.2 mm | 19.4 mm | – | 18.6 mm | reduced the LDH release | ineffective
N#CC1=C(N)Oc2c(ccc3c(N)cccc23)C1c1ccc(F)cc1 (stereo not shown) [7c] | 17.8 mm | 16.2 mm | 18.6 mm | 18.2 mm | 21.3 mm | 2-3 folds | 20.1 mm | – | more LDH release compared to the vehicle
